This is an account of results in US9879028B2, “Compounds that modulate EGFR activity and methods for treating or preventing conditions therewith” (Gatekeeper Pharmaceuticals, Inc., priority 2009, dated 2018).

Structures are written as SMILES.

Assay [1] concerns lung cancer. The following applies: lung cancer patients; cited from earlier work.
The subject of assay [2] is EGFR Del 19/T790M Ba/F3 cells. Nature of the assay: MTS cell proliferation and growth assay in EGFR mutant Ba/F3 cells (Del 19/T790M). The following applies: Mus musculus, BaF3, 72 hours. In kind it is cell-based. From the text: (§1) The EGFR and iERBB2 mutant Ba/F3 cells and the NIH-3T3 cells have been previously characterized (Engelman, J. A. et al. Cancer Res 67, 11924-32 (2007); Yuza, Y. et al. Cancer Biol Ther 6 (2007)). The EGFR C797S and the ERBB2 T798I mutations are introduced using site directed mutagenesis using the Quick Change Site-Directed Mutagenesis kit (Stratagene; La Jolla, Calif.) according to the manufacturer's instructions (Mukohara, T. et al. J Natl Cancer Inst 97, 1185-94 (2005)). The oligonucleotide sequences are available upon request. All constructs are confirmed by DNA sequencing. The constructs are shuttled into the retroviral vector JP1540 using the BD Creator™ System (BD Biosciences). Ba/F3 of NIH-3T3 cells are infected with retrovirus according to standard protocols, as described previously (Engelman, J. A. et al. Proc Natl Acad Sci USA 102, 3788-93 (2005); Zhao, J. J. et al. Cancer Cell 3, 483-95 (2003)). Stable populations are obtained by selection in puromycin (2 μg/ml).
(§2) Growth and inhibition of growth is assessed by MTS assay. […]
(§3) Activity of various compounds of the invention was determined in vitro in EGFR mutant Ba/F3 cells according to the procedures set forth in Example 1.

Assay [3] has as its system EGFR L858R/T790M Ba/F3 cells. Nature of the assay: MTS cell proliferation and growth assay in EGFR mutant Ba/F3 cells (L858R/T790M). As to conditions: Mus musculus, BaF3, 72 hours. In kind it is cell-based.
Text: as §1, §2, §3

Turning to `C#Cc1cccc(Nc2ncnc3cc(OCCOC)c(OCCOC)cc23)c1` [erlotinib], the “median time to tumor progression” value in assay [1] is reported as “approximately 2 months”.
As for `C=CC(=O)Nc1cccc(Oc2nc(Nc3ccc(N4CCN(C)CC4)cc3OC)nc3ccccc23)c1` [IV-1, N-(3-((2-((2-methoxy-4-(4-methylpiperazin-1-yl)phenyl)amino)quinazolin-4-yl)oxy)phenyl)acrylamide], the half-maximal inhibitory concentration (IC50) in assay [2] was 435 nM; in assay [3], 688 nM.
Regarding `C=CC(=O)Nc1cccc(-c2csc3cnc(Nc4ccc(N5CCN(C)CC5)cc4OC)nc23)c1` [VIII-1, N-(3-(2-((2-methoxy-4-(4-methylpiperazin-1-yl)phenyl)amino)thieno[3,2-d]pyrimidin-7-yl)phenyl)acrylamide], the values for the half-maximal inhibitory concentration (IC50) in assay [2] and in assay [3] were 864 nM and 2160 nM, respectively.
Consider `COc1cc2ncnc(Nc3ccc(F)c(Cl)c3)c2cc1OCCCN1CCOCC1` [gefitinib], for which, in assay [1], the “median time to tumor progression” value is “approximately 2 months”.
